Test results: patent US20230218631A1 (priority 2020, published 2023)

What was measured:
Type in all cases: in vivo
[1] = system: C57BL/6J mice; assay: Two-bottle choice ethanol drinking (non-stressed) under systemic UNC0642
Protocol: Animal Care. Adult male C57BL/6J mice (Jackson Laboratory, Bar Harbor, Me.) were singly housed in a climate-controlled environment (21° C.) on a 12h light-dark cycle. Animals were habituated to the housing environment for at least 7 days prior to use in experiments, and had food and water ad libitum. All drinking and behavioral experiments were performed during the dark cycle as described below, and were approved by the MUSC Institutional Animal Care and Use Committee (IACUC) in facilities accredited by the American Association for the Accreditation of Laboratory Animal Care (AAALAC). All procedures were conducted in accordance with the guidelines established by the National Institutes of Health and the National Research Council.
(§1) Systemic G9A inhibitor administration and stress-potentiated drinking. […] Mice were then divided into 2 even groups and given chronic injections of either vehicle or 4 mg/kg UNC0642 for 2 weeks similar to a previous in vivo study in mice (Wang et al., 2018). Next, following 3 days of withdrawal, control mice were injected with 5 mg/kg U50,488 only and chronic treated mice were given both U50,488 and UNC0642 in the same injection 30 minutes before the session. This test was repeated again the following day and then only vehicle injections were given to all mice for the next 3 days before two-bottle choice testing. Finally, after another 3 day withdrawal, an acute injection of UNC0642+U50,488 was given to the naïve control group while U50,488 alone was administered to the chronic UNC0642 group 30 minutes before drinking.
Systemic EHMT2/G9A Inhibition Suppresses Stress-induced Ethanol Drinking Since reducing EHMT2/G9A levels in the NAc blocked stress-regulated ethanol drinking in mice, we tested whether systemic delivery of a specific EHMT2/G9A methyltransferase inhibitor, UNC0642 (Liu et al, 2013), could block stress-potentiated ethanol drinking. Wild-type mice were allowed to drink ethanol for 2 weeks prior to repeated, daily injections of UNC0642 (4 mg/kg; i.p.) given 30 minutes prior to the 2-bottle choice sessions (FIG. 5A). […]

[2] = system: C57BL/6J mice; assay: U50,488 (kappa agonist) stress-potentiated two-bottle choice ethanol drinking under systemic UNC0642
Protocol: as §1
Systemic EHMT2/G9A Inhibition Suppresses Stress-induced Ethanol Drinking Since reducing EHMT2/G9A levels in the NAc blocked stress-regulated ethanol drinking in mice, we tested whether systemic delivery of a specific EHMT2/G9A methyltransferase inhibitor, UNC0642 (Liu et al, 2013), could block stress-potentiated ethanol drinking. Wild-type mice were allowed to drink ethanol for 2 weeks prior to repeated, daily injections of UNC0642 (4 mg/kg; i.p.) given 30 minutes prior to the 2-bottle choice sessions (FIG. 5A). […] Mice were then allowed to continue ethanol drinking for one additional week before the UNC0642-naïve mice (former vehicle control group) were injected with either vehicle or UNC0642 (4 mg/kg; i.p.) and tested for U50,488-potentiated ethanol drinking.
Since UNC0642 (4 mg/kg, i.p.) blocked stress-regulated ethanol drinking in mice as shown above, it was next tested whether this effect was dose-dependent and if it worked similarly in both sexes. There are reported sex/gender differences in the risk of developing several neuropsychiatric conditions, including AUD, SUD, and mood disorders, and while there was no a priori expectation of a sex-difference in UNC0642 efficacy in reducing stress-potentiated alcohol drinking, we wished to confirm that the treatment would be effective in both males and females. Similar to the studies described hereinabove (FIG. 5A), wild-type mice (both male and female) were allowed to drink ethanol for 2 weeks prior to repeated, daily injections of UNC0642 (4 mg/kg; 2 mg/kg, 1 mg/kg, or 0 mg/kg (vehicle), i.p.) given 30 minutes prior to the 2-bottle choice sessions. […]

[3] = system: mice; assay: Sucrose pellet self-administration, extinction and cue-induced reinstatement
Protocol: Mice were first injected with UNC0642 (2 mg/kg, i.p) or vehicle-alone once daily for 10 days. Thirty minutes following the 10th dose, they began the first 2-hour sucrose self-administration session. The UNC0642 and vehicle injections occurred 30 minutes before the start of each sucrose self-administration, extinction, and reinstatement session. All self-administration experiments occurred in standard operant chambers with two nose-poke detectors, a house light, and a cue light and tone generator (Med Associates, Fairfield, Vt.). All sucrose-paired nose-pokes, including those during the timeout, were recorded and are reported as “paired nose pokes”. No fasting occurred during any stage of the experiment. During the 2-hour sessions, mice were trained to nose-poke in the paired side on a fixed-ratio 1 (FR1) schedule with 15-second timeout period after delivery of a single sucrose pellet. Concurrent with the pellet delivery, a cue tone and cue light (which is located immediately above the paired nose-poke port) are activated. All mice had ten self-administration sessions. […] Finally, we examined the number of nose-pokes on the paired side during timeout periods. Similar to the paired nose-poke data above, there was a slight effect on the interaction between UNC0642 treatment and sex. […] Overall, UNC0642 had no effect on sucrose-taking behavior as all groups increased their responding for sucrose pellets over time, and they learned and remembered the relationship between the reinforced (sucrose-paired) and the non-reinforced (unpaired) ports.
Sucrose-seeking behaviors were next tested in these same mice. Following a 7-day period in the home cage with ad libitum food and water, all mice began extinction training for 6 consecutive days (a model of context-associated sucrose-seeking behavior). […] Finally, light/tone cue-induced reinstatement behavior (a model of discreet cue-induced sucrose-seeking behavior) was tested one day after the 6th extinction session in a single 2-hour session. Mice were allowed to nose-poke for light and tone cues without receiving pellets. […] We also found UNC0642 had no effect on UNC0642 on the number of unpaired nose pokes during cue induced reinstatement of sucrose pellet self-administration (FIG. 9J; Three-Way ANOVA, Day: F1,26=6.739, p=0.0153, Sex: F1,26=6.739, p=0.0153, no other significant effects) and UNC0642 had no effect on the discrimination ratio between paired and unpaired nose pokes during cue-induced reinstatement of sucrose pellet self-administration (FIG. 9K; Three-Way ANOVA, Sex: F1,26=5.880, p=0.0226, no other significant effects).

## COc1cc2c(NC3CCN(C(C)C)CC3)nc(N3CCC(F)(F)CC3)nc2cc1OCCCN1CCCC1 [UNC0642, 2-(4,4-Difluoropiperidin-1-yl)-6-methoxy-N-[1-(propan-2-yl)piperidin-4-yl]-7-[3-(pyrrolidin-1-yl)propoxy]quinazolin-4-amine]
[1]; 4 mg/kg i.p. daily, 30 min before 2-bottle choice session, vs vehicle, FIG. 5B
  ethanol drinking during the first week of daily UNC0642 injections (week 3): significant reduction
[1]; 4 mg/kg i.p. daily, vs vehicle control, FIG. 5B
  ethanol intake in the second week of daily drug treatments (week 4): no difference
[1]; 1, 2 or 4 mg/kg i.p. daily, male and female mice, weeks 3-5, FIG. 7A
  baseline two-bottle choice alcohol drinking during daily UNC0642 injections: no effect
[2]; 2 mg/kg i.p. daily, male and female mice, both sexes similarly, FIG. 7B
  U50,488-potentiated ethanol drinking, chronic UNC0642 2 mg/kg: suppressed
[2]; 4 mg/kg i.p. daily, male and female mice, both sexes similarly, FIG. 7B
  U50,488-potentiated ethanol drinking, chronic UNC0642 4 mg/kg: suppressed
[2]; chronic 4 mg/kg i.p. for 2 weeks, U50,488 5 mg/kg i.p. 30 min before session, FIG. 5C
  U50,488-potentiated ethanol drinking, chronic UNC0642 treatment: suppressed
[2]; single 4 mg/kg i.p. with U50,488 5 mg/kg in UNC0642-naive mice, FIG. 5D
  U50,488-potentiated ethanol drinking, single (acute) injection of UNC0642: failed to influence stress-potentiated drinking
[3]; 2 mg/kg i.p. once daily, 30 min before session, FR1, FIG. 9A
  number of sucrose pellets earned during sucrose pellet self-administration: no effect
[3]; 2 mg/kg i.p., 6 extinction days, FIG. 9F
  number of paired nose pokes during extinction learning following sucrose pellet self-administration: no effect
[3]; 2 mg/kg i.p., FIG. 9C
  number of unpaired nose pokes during sucrose pellet self-administration: no effect
[3]; 2 mg/kg i.p., FIG. 9D
  discrimination ratio between paired and unpaired nose pokes during sucrose pellet self-administration: no effect
[3]; 2 mg/kg i.p., FIG. 9G
  unpaired nose-pokes during extinction learning following sucrose pellet self-administration: no effect
[3]; 2 mg/kg i.p., FIG. 9H
  discrimination ratio between paired and unpaired nose pokes during extinction learning: no effect
[3]; 2 mg/kg i.p., FIG. 9I
  number of paired nose pokes during cue induced reinstatement of sucrose pellet self-administration: no effect
[3]; 2 mg/kg i.p., FIG. 9J
  number of unpaired nose pokes during cue induced reinstatement of sucrose pellet self-administration: no effect
[3]; 2 mg/kg i.p., FIG. 9K
  discrimination ratio between paired and unpaired nose pokes during cue-induced reinstatement: no effect
[3]; 2 mg/kg i.p., female mice in UNC0642 group, Day X Treatment interaction, FIG. 9B
  paired nose-pokes during self-administration, female mice: slight increase
[3]; 2 mg/kg i.p., female mice in UNC0642 group, FIG. 9E
  timeout responding, female mice: slightly higher
[3]; 2 mg/kg i.p., overall, FIG. 9B
  number of paired nose pokes during sucrose pellet self-administration: no overall effect
[3]; 2 mg/kg i.p., overall, FIG. 9E
  number of timeout responses on the paired nose port during sucrose pellet self-administration: no overall effect
